Measured values reported in US8178123B2, “Method for augmentation of intraepithelial and systemic exposure of therapeutic agents having substrate activity for cytochrome P450 enzymes and membrane efflux systems following vaginal and oral cavity administration” (Femina Pharma Incorporated, priority 2001, dated 2012).

Legend:
[1] = biological target: T1, P-glycoprotein (Oryctolagus cuniculus, UniProt Q6UUW3); assay: Apical to basolateral transport of 14C-paclitaxel across rabbit intestinal mucosa with and without glycol ethers or verapamil; format: in vitro ADME
T1 construct: from tissue; host or cells: rabbit intestinal mucosa (tissue perfusion / diffusion cells)
T1 sequence (Q6UUW3 1-1279): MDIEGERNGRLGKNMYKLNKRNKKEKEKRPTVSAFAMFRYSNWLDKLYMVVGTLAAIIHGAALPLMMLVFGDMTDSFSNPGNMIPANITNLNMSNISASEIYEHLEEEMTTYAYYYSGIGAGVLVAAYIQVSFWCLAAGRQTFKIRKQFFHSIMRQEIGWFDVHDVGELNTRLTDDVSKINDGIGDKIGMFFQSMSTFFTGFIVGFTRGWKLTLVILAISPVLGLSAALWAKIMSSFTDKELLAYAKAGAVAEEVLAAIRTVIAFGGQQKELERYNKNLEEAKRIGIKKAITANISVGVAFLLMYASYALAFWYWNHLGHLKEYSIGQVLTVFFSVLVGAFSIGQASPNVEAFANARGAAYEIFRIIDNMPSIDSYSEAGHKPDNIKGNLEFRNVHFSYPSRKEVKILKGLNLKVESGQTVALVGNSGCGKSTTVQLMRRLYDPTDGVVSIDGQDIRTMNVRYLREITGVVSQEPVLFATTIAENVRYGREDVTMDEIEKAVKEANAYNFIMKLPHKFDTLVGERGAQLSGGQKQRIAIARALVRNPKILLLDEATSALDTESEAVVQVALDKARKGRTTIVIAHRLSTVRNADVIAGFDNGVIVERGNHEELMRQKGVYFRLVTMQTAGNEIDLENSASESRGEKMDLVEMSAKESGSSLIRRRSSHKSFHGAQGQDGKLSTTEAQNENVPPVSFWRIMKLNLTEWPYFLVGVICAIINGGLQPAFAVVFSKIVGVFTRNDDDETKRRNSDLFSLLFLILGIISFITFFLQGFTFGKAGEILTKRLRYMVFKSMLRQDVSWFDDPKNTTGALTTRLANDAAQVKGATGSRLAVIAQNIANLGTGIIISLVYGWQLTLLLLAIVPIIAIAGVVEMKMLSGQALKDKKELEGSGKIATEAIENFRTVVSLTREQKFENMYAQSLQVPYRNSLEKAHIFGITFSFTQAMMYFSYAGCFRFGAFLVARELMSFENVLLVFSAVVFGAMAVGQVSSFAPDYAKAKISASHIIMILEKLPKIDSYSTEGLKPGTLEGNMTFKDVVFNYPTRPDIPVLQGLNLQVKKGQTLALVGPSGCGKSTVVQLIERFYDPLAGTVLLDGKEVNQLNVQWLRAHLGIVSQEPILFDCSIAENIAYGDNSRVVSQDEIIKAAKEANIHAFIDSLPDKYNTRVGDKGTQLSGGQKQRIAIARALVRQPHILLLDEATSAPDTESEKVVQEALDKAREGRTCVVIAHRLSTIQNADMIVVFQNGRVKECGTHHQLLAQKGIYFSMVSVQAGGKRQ
Description: Briefly, fresh mucosal samples are collected from female, white New Zealand rabbits, are separated from underlying connective tissue, and are mounted into modified Franz-type diffusion cells (5 mm diameter). […] Radioactivity is determined by liquid scintillation counting using a Beckman LS 6500. Each transport experiment is performed in four replicate tissue samples. […] Individual and mean Papp values with corresponding standard deviations (S.D.) are calculated for each group. Statistical significance is tested by one-way analysis of variance (ANOVA) using Tukey's family error at p<0.05. […]

[2] = tested on: cytochrome P450; assay: Cytochrome P450-mediated oxidation of coumarin to 7α-hydroxycoumarin by rabbit liver microsomes; format: biochemical; settings: 1% glycol ether
Description: To evaluate the effect of glycol ethers on cytochrome P450-mediated metabolism, enzymatic conversion of coumarin to its 7α-hydroxycoumarin oxidation product by rabbit liver microsomes in the presence and absence of 5% DGMEE, 1% DBMPE, and 1% DGMBE is determined according to a protocol described previously by Pearce and co-workers (Arch. Biochem. Biophys., 298, 211-225 (1992)).

[3] = tested on: membrane efflux systems; assay: Bidirectional transport of ritonavir across rabbit mucosa in diffusion cells (membrane efflux activity); format: in vitro ADME
Description: To illustrate experimentally the functional differences in membrane efflux activity among the intestinal, vaginal, and buccal mucosal barriers, bidirectional transport of the protease inhibitor ritonavir is quantitatively assessed and results seen in FIG. 1 may be obtained (FIG. 1). Experimental procedures are described in Example 2.
Briefly, fresh mucosal samples are collected from female, white New Zealand rabbits, are separated from underlying connective tissue, and are mounted into modified Franz-type diffusion cells (5 mm diameter). Permeability studies from the apical to the basolateral as well as in the opposite direction are performed using continuous-flow perfusion chambers designed for mucosal tissue (Squier et al. J. Pharm. Sci., 86, 82-84 (1997)). ^3H-Ritonavir (˜3 μCi/mL) dissolved in 1 mL of 0.01 M PBS, pH 7.4, is applied to the donor compartment, and the perfusate in the received compartment is collected into scintillation vials through 16 hrs. Radioactivity is determined by liquid scintillation counting using a Beckman LS 6500. Each transport experiment is performed in four replicate tissue samples. Apparent permeability coefficients (Papp) are calculated from steady state flux according to Papp [cm/min]=(ΔQ/Δt)/Axc(0), where ΔQ/Δt=linear appearance rate of mass in the receiver, A=cross-sectional area (i.e., 0.20 cm^2), and c(0)=initial ritonavir concentration in the donor compartment at t=0. Individual and mean Papp values with corresponding standard deviations (S.D.) are calculated for each group. Statistical significance is tested by one-way analysis of variance (ANOVA) using Tukey's family error at p<0.05. To evaluate the contribution of membrane efflux system on ritonavir permeability Refflux was calculated as the ratio of Papp(basolateral-apical)/Papp(apical-basolateral).

CCOCCOCCO [DGMEE, diethylene glycol mono 2-ethyl ether]
enhancement of intestinal absorption of paclitaxel ([1]; 5% in transport buffer): 1.8 fold

CCCOCCOCCO [DGMPE, diethylene glycol monopropyl ether]
enhancement of intestinal absorption of paclitaxel ([1]; 1% in transport buffer): 2.5 fold

CCCCOCCOCCO [DGMBE, diethylene glycol monobutyl ether]
enhancement of intestinal absorption of paclitaxel ([1]; 1% in transport buffer): 4.1 fold | reduction of formation of the 7α-hydroxycoumarin metabolite [2]: about 42%

CC(C)c1nc(CN(C)C(=O)N[C@H](C(=O)N[C@@H](Cc2ccccc2)C[C@H](O)[C@H](Cc2ccccc2)NC(=O)OCc2cncs2)C(C)C)cs1 [ritonavir]
Refflux compared with intestinal barrier ([3]; buccal rabbit epithelium in vitro): significantly smaller | basolateral to apical flux relative to the opposite direction (Refflux) ([3]; intestinal rabbit mucosa in vitro, 3H-ritonavir): 9.2 fold | Refflux compared with intestinal barrier ([3]; vaginal rabbit epithelium in vitro): significantly smaller
